Reference: patent US8440637B2, “Combination treatment for the treatment of hepatitis C virus infection” (priority 2007, dated 2013)
Strand notation (5' to 3'): a small letter for the sugar, then the base; units joined by * are phosphorothioate-linked, units joined directly phosphodiester-linked; [ ] holds rarer units or linkages, { } end groups; capitals alone tell only the bases. l = locked nucleic acid (LNA); [5mC] = 5-methylcytosine; d = 2'-deoxy (DNA)

Columns and labels:
[1] = tested on: ApoB-100 mRNA; experiment: Serum total cholesterol after dosing apoB antisense oligonucleotides; type: in vivo, mouse
Method: Total cholesterol level is measured in plasma using a colometric assay Cholesterol CP from ABX Pentra. The cholesterol is measured following enzymatic hydrolysis and oxidation. 21.5 μL water was added to 1.5 μL plasma. 250 μL reagent is added and within 5 min the cholesterol content is measured at a wavelength of 540 nm. Measurements on each animal was made in duplicates. The sensitivity and linearity was tested with 2 fold diluted control compound (ABX Pentra N control). The relative Cholesterol level was determined by subtraction of the background and presented relative to the cholesterol levels in plasma of saline treated mice.
(§1) In this study 5 mg/kg/dose were dosed on 3 consecutive days (one dose/day i.v.) and animals were sacrificed 24 hours after last dosing. At sacrifice, liver and retro orbital sinus blood was sampled. Serum was prepared from blood for analysis of cholesterol. RNA was isolated from the liver and the expression of ApoB-100 mRNA was measured.
(§2) In this study three different concentrations (10, 15 and 25 mg/kg) of SEQ ID NO 17 (Table 1) and SEQ ID NO 34 (Table 1) were examined for duration of action on ApoB-100 mRNA expression and serum cholesterol level. SEQ ID NO 17 and SEQ ID NO 34 were given as a single dose of 10, 15 or 25 mg/kg to C57BL/6 female mice. Mice were sacrificed at different time points (1, 3, 5 and 8 days) after dosing; liver and serum were examined for ApoB-100 mRNA expression, liver oligonucleotide concentration and cholesterol and ALT, respectively.
Blood serum used to measure cholesterol was sampled at sacrifice. Twenty-four hours after dosing SEQ ID NO 17 serum total cholesterol was reduced 25-40%, and dosing SEQ ID NO 34 gave 40-55% reduction in total cholesterol. At day 3, the total cholesterol level was further reduced: SEQ ID NO 17 gave 70-90% reduction in a dose dependent manner after doing 10, 15 or 25 mg/kg. SEQ ID NO 34 reduced total cholesterol with 90-95% relative to the saline control group. At day 5-8 the total cholesterol level increased in all groups except the group dosed SEQ ID NO 17 at 10 mg/kg. (FIG. 4.).
Blood serum was sampled at sacrifice and used to measure cholesterol. The serum total cholesterol level reflected the mRNA expression of ApoB-100; dose dependent reduction with best effect at 5 days after dosing SEQ ID NO 17 at 1 and 2.5 mg/kg and similar effect at days 3, 5 and 8 after dosing 5 mg/kg (50% reduction). Dose dependent effect was also obtained after dosing SEQ ID NO 34 with best effect at day 3 after dosing 5 mg/kg (70% reduction) with following increase in cholesterol level (60% reduction at day 8 and 45% at day 16).
At sacrifice blood for serum was sampled and used to measure cholesterol.

[2] = tested on: ApoB-100 mRNA; experiment: ApoB-100 mRNA expression in liver by qPCR after dosing apoB antisense oligonucleotides; type: in vivo, mouse
Method: as §1, §2
(§3) Liver sampled at sacrifice was analysed for ApoB-100 mRNA expression by qPCR. Data was normalized to Gapdh and presented relative to the data obtained by dosing saline. One dose of 10, 15 or 25 mg/kg of SEQ ID NO 17 or SEQ ID NO 34 was very effective to down regulate ApoB-100 mRNA in liver (FIG. 3).
A single dose of SEQ ID NO 17 (Table 1) and SEQ ID NO 34 (Table 1) at different concentrations was administered to C57BL/6J mice to find ED50 values for cholesterol. Duration of action was also included in this study, because we previously have seen that maximum effect of a single dose not always was achieved 24 hours after dosing. […] In this study we therefore have chosen lower concentrations (1, 2.5 and 5 mg/kg).
Liver sampled at sacrifice was analysed for ApoB-100 mRNA expression by qPCR. Data was normalized to Gapdh and presented relative to the data obtained by dosing saline. One dose of 10, 15 or 25 mg/kg of SEQ ID NO 17 or SEQ ID NO 34 was very effective to down regulate ApoB-100 mRNA in liver (FIG. 5).
The effect on ApoB-100 mRNA was examined at different days after dosing 1.0 or 5.0 mg/kg (one dose day 0) of the three LNA antisense oligonucleotides 12-mer SEQ ID NO 34 (Table 1), SEQ ID NO 26 (Table 1) 13-mer and 14-mer SEQ ID NO 17 (Table 1) all targeting ApoB mRNA.
as §3, with “Dosing 3* 1” for “One dose of 10, 15”, “5” for “25”, “of SEQ ID NO 34,” for “of”, “26” for “34”, “7). […] SEQ ID NO 17 dosed 3* 1 mg/kg/dose or 5 mg/kg/dose down regulated target mRNA with 50% and 70% respectively.” for “3).”

[3] = tested on: miR-122a; experiment: Melting temperature (Tm) of LNA anti-miR/miR-122a RNA duplex; type: physicochemical, human; conditions: Table 2; towards synthetic miR-122a RNA oligonucleotide with phosphorothioate linkages; PS backbone
Method: The melting temperatures were assessed towards the mature miR-122a sequence, using a synthetic miR-122a RNA oligonucleotide with phosphorothioate linkaged.
The LNA anti-miR/miR-122a oligo duplex was diluted to 3 μM in 500 μl RNase free H2O, which was then mixed with 500 μl 2× dimerization buffer (final oligo/duplex conc. 1.5 μM, 2× Tm buffer: 200 mM NaCl, 0.2 mM EDTA, 20 mM NaP, pH 7.0, DEPC treated to remove RNases). The mix was first heated to 95 degrees for 3 minutes, then allowed to cool at room temperature (RT) for 30 minutes.
Following RT incubation Tm was measured on Lambda 40 UV/VIS Spectrophotometer with peltier temperature progammer PTP6 using PE Templab software (Perkin Elmer). The temperature was ramped up from 20° C. to 95° C. and then down again to 20° C., continuously recording absorption at 260 nm. First derivative and local maximums of both the melting and annealing was used to assess melting/annealing point (Tm), both should give similar/same Tm values. For the first derivative 91 points was used to calculate the slope.

[4] = liver, 3 doses of 5 mg/kg/dose i.v. on consecutive days, 24 hours after last dosing

Substance	reduction of serum cholesterol ([1]; dosing 3*1 mg/kg) [%]	reduction of serum cholesterol ([1]; dosing 3*5 mg/kg/dose) [%]	reduction of serum total cholesterol ([1]; single dose 5 mg/kg, days 3, 5 and 8) [%]	reduction of serum total cholesterol ([1]; single dose of 10, 15 or 25 mg/kg, 24 hours after dosing)	reduction of serum total cholesterol ([1]; single dose of 10, 15 or 25 mg/kg, day 3)	ApoB-100 mRNA down-regulation (in words) ([2]; 10, 15 or 25 mg/kg SEQ ID NO 34, 25 mg/kg SEQ ID NO 17)	down regulation of ApoB-100 mRNA [2, 4]	down regulation of ApoB-100 mRNA ([2]; liver, dosing 3*1 mg/kg i.v.) [%]	down regulation of ApoB-100 mRNA ([2]; liver, dosing 3*5 mg/kg i.v.) [%]	down regulation of ApoB-100 mRNA relative to saline ([2]; liver, single dose of 10, 15 or 25 mg/kg, C57BL/6 female mice, 24 hours after dosing)	reduction of ApoB-100 mRNA expression ([2]; single dose 5 mg/kg, day 8) [%]	duration of dose dependent down regulation of ApoB-100 mRNA ([2]; single dose of 1, 2.5 or 5 mg/kg, C57BL/6J mice) [days]	reduction of serum total cholesterol ([1]; 3 doses of 5 mg/kg/dose i.v., at sacrifice, day 3)	Tm (° C.) [3] [°C]
5′-AsGs^MeCsaststsgsgstsastsTs^MeCsA-3′ (antisense lA*lG*l[5mC]*dA*dT*dT*dG*dG*dT*dA*dT*lT*l[5mC]*lA) [SEQ ID NO: 17]	40	70	50	25-40%	70-90%	completely down-regulated	about 75%	50	70	70-85%	75	5	–	–
5′-AsGs^MeCsaststsgsgstsastsTs^MeCsAsg-3′ (antisense lA*lG*l[5mC]*dA*dT*dT*dG*dG*dT*dA*dT*lT*l[5mC]*lA*dG) [SEQ ID NO: 16]	–	–	–	–	–	–	25-30%	–	–	–	–	–	about 18%	–
5′-cCatTgtCacActCca-3′ (antisense dC*l[5mC]*dA*dT*lT*dG*dT*l[5mC]*dA*dC*lA*dC*dT*l[5mC]*dC*dA) [SEQ ID NO: 60]	–	–	–	–	–	–	–	–	–	–	–	–	–	75
